# Assay results published in US20240041877A1, “DOSAGE REGIME AND METHOD FOR TREATING PULMONARY ARTERIAL HYPERTENSION” (Altavant Sciences GmbH, priority 2019, published 2024).
# Experiment: Study KAR5585-101 Part 1 (SAD): plasma pharmacokinetics after a single oral dose of KAR5585, fasting and fed (incl. dose proportionality and food effect)
# Details: for half-life / AUC(0-t) / AUC / AUC(0-inf) / concentration at 12 h / Cmax / Tmax: human, po; for AUC: AUC0-tau; for AUC(0-inf): AUC0-∞; for Tmax: Median
# [1] = 100 mg to 700 mg dose (7-fold increase in dose), fasting
# [2] = 400 mg KAR5585, Cohort 3B (test) vs 3A (reference)
# [3] = 400 mg KAR5585 single dose, Cohorts 3B vs 3A
# [4] = 700 mg to 2000 mg (2.86-fold increase in dose), fasting
# [5] = 100 to 2000 mg KAR5585 single oral dose, fasting, plasma analyte = label
# [6] = KAR5417 after 100 mg KAR5585 single oral, fasted, Cohort 1, Geo. Mean
# [7] = KAR5417 after 100 mg KAR5585 single oral, fasted, Cohort 1, Mean
# [8] = KAR5417 after 200 mg KAR5585 single oral, fasted, Cohort 2, Geo. Mean
# [9] = KAR5417 after 200 mg KAR5585 single oral, fasted, Cohort 2, Mean
# [10] = KAR5417 after 400 mg KAR5585 single oral, fasted, Cohort 3A, Geo. Mean
# [11] = KAR5417 after 400 mg KAR5585 single oral, fasted, Cohort 3A, Mean
# [12] = KAR5417 after 400 mg KAR5585 single oral, fed, Cohort 3B, Geo. Mean
# [13] = KAR5417 after 400 mg KAR5585 single oral, fed, Cohort 3B, Mean
# [14] = KAR5417 after 700 mg KAR5585 single oral, fasted, Cohort 4, Geo. Mean
# [15] = KAR5417 after 700 mg KAR5585 single oral, fasted, Cohort 4, Mean
# [16] = KAR5417 after 1200 mg KAR5585 single oral, fasted, Cohort 5, Geo. Mean
# [17] = KAR5417 after 1200 mg KAR5585 single oral, fasted, Cohort 5, Mean
# [18] = KAR5417 after 2000 mg KAR5585 single oral, fasted, Cohort 6, Geo. Mean
# [19] = KAR5417 after 2000 mg KAR5585 single oral, fasted, Cohort 6, Mean
# [20] = plasma, 100 mg, KAR5417 after 100 mg KAR5585 single oral, fasted, Cohort 1, Geo. Mean
# [21] = plasma, 100 mg, KAR5417 after 100 mg KAR5585 single oral, fasted, Cohort 1, Mean
# [22] = plasma, 200 mg, KAR5417 after 200 mg KAR5585 single oral, fasted, Cohort 2, Geo. Mean
# [23] = plasma, 200 mg, KAR5417 after 200 mg KAR5585 single oral, fasted, Cohort 2, Mean
# Protocol: Food effect was to be evaluated in Part 1, Period 2. Part 2 was permitted to begin before Part 1 was completed and, in each part, the data from each dose Cohort were to be reviewed for safety before the next dose Cohort was enrolled.
# Part 1 had 6 Cohorts of 12 subjects each (for a total of 72 subjects) and Part 2 had 4 Cohorts of 12 subjects each (for a total of 48 subjects). In Part 1, the 12 subjects in Cohort 3 (400 mg)were studied twice, once under fasting conditions (Period 1) and once under fed conditions (Period 2) for food-effect assessment.
# Pharmacokinetic data were to be summarized descriptively.
compound,measurement,setting,value
"Nc1nc(O[C@H](c2ccc(Cl)cc2-c2ccccc2)C(F)(F)F)cc(N2CCC3(CC2)CN[C@H](C(=O)O)C3)n1 [KAR5417, (S)-8-(2-amino-6-((R)-1-(5-chloro-[1,1T-biphenyl]-2-yl)-2,2,2-trifluoroeth-oxy)pyrimidin-4-yl)-2,8-diazaspiro[4.5]decane-3-carboxylic acid]",fold increase in mean AUC0-24,[1],6.3 fold
same,fold increase in mean AUC0-inf,[1],6.8 fold
same,fold increase in mean Cmax,[1],7.27 fold
same,"AUC0-inf, Geometric LS Mean Ratio (fed/fasting)",[2],2.02
same,"AUC0-tau, Geometric LS Mean Ratio (fed/fasting)",[2],2.04
same,"exposure as assessed by AUC0-tau and AUC0-inf, fed relative to fasting",400 mg KAR5585 single dose,approximately 2 fold
same,"fold increase in Cmax, fed vs fasting",[3],1.8 fold
same,"fold increase in mean AUC0-inf, fed vs fasting",[3],1.8 fold
same,"peak mean concentration under fed relative to fasting conditions, % higher",[3],approximately 177%
same,fold increase in AUC0-24,[4],1.7 fold
same,fold increase in AUC0-inf,[4],1.81 fold
same,fold increase in Cmax,[4],1.38 fold
same,"Dose proportionality power model, AUC0-12: Intercept estimate",[5],14.5
same,"Dose proportionality power model, AUC0-inf: Intercept estimate",[5],12.3
same,"Dose proportionality power model, AUC0-tau: Intercept estimate",[5],6.54
same,"Dose proportionality power model, Cmax: Intercept estimate",[5],1.95
same,AUC0-24/D,[6],8.16 (hr*ng/mL)/mg
same,Cmax/D,[6],0.931 (ng/ml)/mg
same,AUC0-24/D,[7],8.47 (hr*ng/mL)/mg
same,Cmax/D,[7],1.07 (ng/ml)/mg
same,t1/2,[7],4.67 h
same,AUC0-24/D,[8],4.70 (hr*ng/mL)/mg
same,Cmax/D,[8],0.658 (ng/ml)/mg
same,AUC0-24/D,[9],5.81 (hr*ng/mL)/mg
same,Cmax/D,[9],0.801 (ng/ml)/mg
same,AUC0-24/D,[10],7.43 (hr*ng/mL)/mg
same,Cmax/D,[10],1.11 (ng/ml)/mg
same,AUC0-24/D,[11],8.12 (hr*ng/mL)/mg
same,Cmax/D,[11],1.21 (ng/ml)/mg
same,AUC0-24/D,[12],13.4 (hr*ng/mL)/mg
same,Cmax/D,[12],2.08 (ng/ml)/mg
same,AUC0-24/D,[13],13.6 (hr*ng/mL)/mg
same,Cmax/D,[13],2.15 (ng/ml)/mg
same,AUC0-24/D,[14],5.31 (hr*ng/mL)/mg
same,Cmax/D,[14],0.777 (ng/ml)/mg
same,AUC0-24/D,[15],7.58 (hr*ng/mL)/mg
same,Cmax/D,[15],1.11 (ng/ml)/mg
same,AUC0-24/D,[16],4.84 (hr*ng/mL)/mg
same,Cmax/D,[16],0.636 (ng/ml)/mg
same,AUC0-24/D,[17],5.66 (hr*ng/mL)/mg
same,Cmax/D,[17],0.747 (ng/ml)/mg
same,AUC0-24/D,[18],4.26 (hr*ng/mL)/mg
same,Cmax/D,[18],0.515 (ng/ml)/mg
same,AUC0-24/D,[19],4.54 (hr*ng/mL)/mg
same,Cmax/D,[19],0.542 (ng/ml)/mg
same,half-life,"in vivo, 700 mg",12.1 h
same,AUC(0-t),"plasma, 100 mg, AUC0-12, KAR5417 after 100 mg KAR5585 single oral, fasted, Cohort 1, Geo. Mean",686 ng·h/mL
same,AUC(0-t),"plasma, 100 mg, AUC0-12, KAR5417 after 100 mg KAR5585 single oral, fasted, Cohort 1, Mean",704 ng·h/mL
same,AUC(0-t),"plasma, 100 mg, AUC0-24, KAR5417 after 100 mg KAR5585 single oral, fasted, Cohort 1, Geo. Mean",816 ng·h/mL
same,AUC(0-t),"plasma, 100 mg, AUC0-24, KAR5417 after 100 mg KAR5585 single oral, fasted, Cohort 1, Mean",847 ng·h/mL
same,AUC,[20],605 ng·h/mL
same,AUC,[21],718 ng·h/mL
same,AUC(0-inf),[20],847 ng·h/mL
same,AUC(0-inf),[21],886 ng·h/mL
same,concentration at 12 h,"plasma, 100 mg, C12, KAR5417 after 100 mg KAR5585 single oral, fasted, Cohort 1, Geo. Mean",22.5 ng/mL
same,concentration at 12 h,"plasma, 100 mg, C12, KAR5417 after 100 mg KAR5585 single oral, fasted, Cohort 1, Mean",23.8 ng/mL
same,Cmax,[20],93.1 ng/mL
same,Cmax,[21],107 ng/mL
same,AUC(0-t),"plasma, 100 mg, Plasma AUC0-96, KAR5417 in plasma, 100 mg KAR5585 single oral dose, mean",889 ng·h/mL
same,half-life,"plasma, 100 mg, t1/2, KAR5417 after 100 mg KAR5585 single oral, fasted, Cohort 1, Geo. Mean",4.51 h
same,half-life,"plasma, 100 mg, t1/2, KAR5417 after 100 mg KAR5585 single oral, fasted, Cohort 1, Mean",4.7 h
same,Tmax,"plasma, 100 mg, KAR5417 after 100 mg KAR5585 single oral, fasted, Cohort 1",4 h
same,AUC(0-t),"plasma, 200 mg, AUC0-12, KAR5417 after 200 mg KAR5585 single oral, fasted, Cohort 2, Geo. Mean",771 ng·h/mL
same,AUC(0-t),"plasma, 200 mg, AUC0-12, KAR5417 after 200 mg KAR5585 single oral, fasted, Cohort 2, Mean",947 ng·h/mL
same,AUC(0-t),"plasma, 200 mg, AUC0-24, KAR5417 after 200 mg KAR5585 single oral, fasted, Cohort 2, Geo. Mean",940 ng·h/mL
same,AUC(0-t),"plasma, 200 mg, AUC0-24, KAR5417 after 200 mg KAR5585 single oral, fasted, Cohort 2, Mean",1160 ng·h/mL
same,AUC,[22],866 ng·h/mL
same,AUC,[23],1120 ng·h/mL
same,AUC(0-inf),[22],988 ng·h/mL
same,AUC(0-inf),[23],1230 ng·h/mL
same,concentration at 12 h,"plasma, 200 mg, C12, KAR5417 after 200 mg KAR5585 single oral, fasted, Cohort 2, Geo. Mean",27.3 ng/mL
same,concentration at 12 h,"plasma, 200 mg, C12, KAR5417 after 200 mg KAR5585 single oral, fasted, Cohort 2, Mean",32.9 ng/mL
same,Cmax,[22],132 ng/mL
same,Cmax,[23],160 ng/mL
same,AUC(0-t),"plasma, 200 mg, Plasma AUC0-96, KAR5417 in plasma, 200 mg KAR5585 single oral dose, mean",1240 ng·h/mL
same,half-life,"plasma, 200 mg, t1/2, KAR5417 after 200 mg KAR5585 single oral, fasted, Cohort 2, Geo. Mean",5.29 h
same,half-life,"plasma, 200 mg, t1/2, KAR5417 after 200 mg KAR5585 single oral, fasted, Cohort 2, Mean",5.4 h
same,Tmax,"plasma, 200 mg, KAR5417 after 200 mg KAR5585 single oral, fasted, Cohort 2",3 h
same,AUC(0-t),"plasma, 400 mg, AUC0-12, KAR5417 after 400 mg KAR5585 single oral, fasted, Cohort 3A, Geo. Mean",2460 ng·h/mL
same,AUC(0-t),"plasma, 400 mg, AUC0-12, KAR5417 after 400 mg KAR5585 single oral, fasted, Cohort 3A, Mean",2690 ng·h/mL
same,AUC(0-t),"plasma, 400 mg, AUC0-12, KAR5417 after 400 mg KAR5585 single oral, fed, Cohort 3B, Geo. Mean",4170 ng·h/mL
same,AUC(0-t),"plasma, 400 mg, AUC0-12, KAR5417 after 400 mg KAR5585 single oral, fed, Cohort 3B, Mean",4240 ng·h/mL
same,AUC(0-t),"plasma, 400 mg, AUC0-24, KAR5417 after 400 mg KAR5585 single oral, fasted, Cohort 3A, Geo. Mean",2970 ng·h/mL
same,AUC(0-t),"plasma, 400 mg, AUC0-24, KAR5417 after 400 mg KAR5585 single oral, fasted, Cohort 3A, Mean",3250 ng·h/mL
same,AUC(0-t),"plasma, 400 mg, AUC0-24, KAR5417 after 400 mg KAR5585 single oral, fed, Cohort 3B, Geo. Mean",5370 ng·h/mL
same,AUC(0-t),"plasma, 400 mg, AUC0-24, KAR5417 after 400 mg KAR5585 single oral, fed, Cohort 3B, Mean",5430 ng·h/mL
